Experimental data published in PMC8537458, “Anti-Inflammatory Azaphilones from the Edible Alga-Derived Fungus Penicillium sclerotiorum” (Marine Drugs, 2021).
“Also recorded” adds a separate entry of the source.

Key:
Assay type in all cases: cell-based
[1] = system: phospho-Smad 2(S465/467)/Smad 3(S423/425); assay: TGF-β-induced Smad2/3 phosphorylation by immunoblotting; details: 20 ng/mL TGF-β, 30 min, CCD966SK fibroblasts, n = 3
Procedure: (§1) THP-1 monocyte cell line that was gifted from Prof. Tsung-Hsien Chang (National Defense Medical Center, Taiwan) was used to examine for TNF-α-induced NFκB phosphorylation; CCD966SK fibroblast cell line that purchased from Bioresource Collection and Research Centre (BCRC; Taiwan) was used to examine for TGF-β-induced Smad2/3 phosphorylation. The procedure of protein preparation, separation, blotting, and detection was conducted referred to previously. The primary antibodies against phospho-NFκB p65(S536), NFκB p65, phospho-Smad 2(S465/467)/Smad 3(S423/425), and Smad 2/3 were purchased from Cell Signaling (USA). The level of Gapdh expression served as an internal control for protein loading. The annotated number represents the quantified level from normalized by both NFκB p65/Smad 2/3 and Gapdh and calculated the fold change phospho-NFκB or phospho-Smad 2/3 to their DMSO vehicle control group by ImageJ software. IκB/IKK inhibitor BAY 11-7082 (Cayman) and TGFβRI inhibitor LY3200882 (Medchemexpres) as positive controls.
(§2) Statistical analysis was conducted via a one-tailed unpaired t-test in comparison compound treating group with the group only treated with TNF-α or TGF-β by Microsoft Excel software. The significance was annotated on plots of the result, * for p < 0.05, ** for p < 0.01, and *** for p < 0.001.

phospho-NFκB p65(S536) = assay: TNF-α-induced NFκB phosphorylation by immunoblotting; details: 20 ng/mL TNF-α, 30 min, THP-1 cells, n = 3
Procedure: as §1, §2

[2] = MTT cytotoxicity assay, summary over the cell panel; details: human; general density of 1 × 10^4/96-well; most cells / various cancer cells
Procedure: (§3) The cell lines A549, MCF-7, MDA-MB-231, SH-SY5Y, and WI-38 were purchased from Bioresource Collection and Research Centre (BCRC; Taiwan). […] Chin-Chung Wu (Kaohsiung Medical University, Taiwan), and HCT15 and HCT116 cells were given by Prof. Chen-Yang Shen (Academia Sinica, Taiwan). 1 × 10^3 or 1 × 10^4 cells were seeded in a 96-well one day before compounds treatment.

[3] = system: NFκB responsive element luciferase reporter in HEK293A cells; assay: NFκB transcriptional activity reporter assay; details: 20 ng/mL TNF-α, 24 h, n = 6
Procedure: (§4) Reporter plasmids (Promega, Madison, WI, USA) with luciferase driven by NFκB or SMAD responsive elements were stably established in HEK293A cells and maintained by a puromycin-containing culture medium. Chemiluminescence levels represent the luciferase expression was determined by the ONE-Glo reagent (Promega, USA). The fold change of each group to the DMSO vehicle control group was calculated.
as §2

[4] = system: SMAD responsive element luciferase reporter in HEK293A cells; assay: SMAD transcriptional activity reporter assay; details: 20 ng/mL TGF-β, 24 h
Procedure: as §4, §2

SH-SY5Y = assay: MTT cytotoxicity assay; details: among seven cancer and one fibroblast cell lines
Procedure: as §3

MTT cytotoxicity assay = details: human, SH-SY5Y neuroblastoma cells
Procedure: as §3

SMILES	TGF-β-induced Smad2/3 phosphorylation ([1]; 20 μM compound)	TNF-α-induced NFκB phosphorylation (phospho-NFκB p65(S536); 20 μM compound)	IC50 at 48 h [2] [µM]	NFκB transcriptional activity by reporter assay ([3]; 20 μM compound)	TGF-β-stimulated SMAD transcriptional activity ([4]; 20 μM compound, n = 6)	also measured
CC[C@H](C)[C@@H](O)[C@](C)(O)/C=C/C1=CC2=C(Cl)C(=O)[C@](C)(O)[C@H](OC(C)=O)[C@H]2CO1 [Compound 3, hypocrellone A]	decrease	inhibit; also recorded: significantly reduce	> 100	did not change; also recorded: remains	–	–
CC[C@H](C)[C@@H](O)[C@@](C)(O)/C=C/C1=CC2=C(Cl)C(=O)[C@](C)(O)[C@H](OC(C)=O)[C@H]2CO1 [Compound 4, eupenicilazaphilone C]	–	–	> 100	–	increased	–
CC(C)(O)c1cc(Nc2cc(Oc3cn(C4CC4)nc3C3CCOCC3)ccn2)ccn1 [LY3200882, reference compound]	–	–	–	–	–	TGF-β-induced Smad2/3 phosphorylation ([1]; 1 μM positive control, listed as TGFβRI inhibitor): trend toward a decrease; TGF-β-stimulated SMAD transcriptional activity ([4]; 1 μM positive control, n = 6, listed as TGFβRI inhibitor): decreased
CCC(C)C(O)C(C)(O)C=CC1=CC2=C(Cl)C(=O)C(C)(O)C(OC(C)=O)C2CO1 (stereo not drawn) [Compound 2, 8a-epi-eupenicilazaphilone C]	significantly increase; also recorded: promote	–	–	–	promote; also recorded: increased	–
Cc1ccc(S(=O)(=O)/C=C/C#N)cc1 [BAY 11-7082, reference compound]	–	–	–	–	–	TNF-α-induced NFκB phosphorylation (phospho-NFκB p65(S536); 10 μM positive control): significantly reduce; NFκB transcriptional activity by reporter assay ([3]; 10 μM positive control): alter
COc1cccc2c1C(=O)c1c(O)c3c(c(O)c1C2=O)C[C@@](O)(C(=O)CO)C[C@@H]3O[C@H]1C[C@H](N)[C@H](O)[C@H](C)O1 [doxorubicin, reference compound]	–	–	0.36 to 3.7	–	–	–
CCC(C)C(O)C(C)(O)C=CC1=CC2=C(Cl)C(=O)C(C)(O)C(OC(C)=O)C2CO1 (stereo not drawn) [Compound 1, 8a-epi-hypocrellone A]	–	inhibit; also recorded: significantly reduce	> 100	did not change; also recorded: remains	increased	selective toxicity toward SH-SY5Y (SH-SY5Y): selective toxicity; IC50 at 48 h (MTT cytotoxicity assay; general density 1 × 10^4/96-well (Table 2)): 35.6 µM; IC50 at 48 h (MTT cytotoxicity assay; very low density 1 × 10^3/96-well (Table 3)): 26.8 µM
CC[C@H](C)/C=C(C)/C=C/C1=CC2=C(Cl)C(=O)[C@](C)(O)[C@H](OC(C)=O)[C@H]2CO1 [Compound 7, isochromophilone IV]	–	inhibit; also recorded: significantly reduce	> 100	did not change; also recorded: remains	–	–
CC[C@H](C)/C=C(C)/C=C/c1cc(O)c(C)c(O)c1C=O [Compound 5, ((1E,3E)-3,5-dimethylhepta-1,3-dien-1-yl)-2,4-dihydroxy-3-methylbenzaldehyde]	–	–	> 100	–	–	–
CC[C@H](C)/C=C(C)/C=C/C1=CC2=C(Cl)C(=O)[C@](C)(OC(C)=O)C(=O)C2=CO1 [Compound 6, sclerotiorin]	inhibited	–	> 100	–	inhibited; also recorded: decreased	–
